According to US5814634A, “Alkylenediamine derivative anti-ulcer drug and antibacterial drug” (Shiseido Co. Ltd., priority 1996, dated 1998):
Where two headings read alike, the source gives them in different places.

Columns and labels:
[1] = test system: stress ulcer; assay: WIS: Restraint and Water Immersion Stress-Induced Ulcer Inhibition Test; assay type: in vivo, rat (male Crj:SD or Slc:SD); settings: 100 mg/kg oral, rats, water immersion stress 7 hours
Protocol: WIS: Restraint and Water Immersion Stress-Induced Ulcer Inhibition Test
The degree of inhibition of the stress ulcer formation is tested.
Male Crj:SD or Slc:SD rats (6 to 7-week-old) were fasted overnight, but allowed free access to water. Each group has 5 to 8 of these rats. The sample compound was dissolved or suspended in an aqueous solution of 0.3% sodium carboxymethylcellulose or 0.05% Tween 80 and then was orally administered (100 mg/10 ml/kg). To a control group, the vehicle was administered. 10 minutes later, the rats were placed in a stress cage and immersed to the level of xipfoid process in a water bath (21° C.) for 7 hours. At the end of the stress, the rats were sacrificed by inhalation of ether or carbon dioxide. Then, the stomach of each was removed, inflated by injecting 10 ml of 5% formalin neutral buffer solution, and immersed in 1% formalin neutral buffer solution for 30 minutes or more to be fixed. The stomach was incised along the greater curvature and then the length of each erosion in the glandular portion was determined under dissecting microscope. The sum of the length of erosions per stomach was defined as ulcer index (UI).
(§1) The effect obtained when 100 mg/kg of the sample compound had been administered was expressed as ulcer formation inhibitory rate (%) as follows: [formula] VOL, TAO: Acid Secretion Inhibition Test In Vivo i) Meaning

[2] = test system: acid secretion in vivo; assay: VOL, TAO: Acid Secretion Inhibition Test In Vivo; parameters: species or system rat (male Crj:Donryu); settings: 100 mg/kg oral, pylorus-ligated rats, histamine 30 mg/kg s.c.
Protocol: as §1
Inhibitory effect on acid secretion in vivo is confirmed.
Male Crj:Donryu rats (7-week-old) were fasted overnight but allowed free access to water. In each group, 8 to 10 of these rats were used under urethane anesthesia (1.25 g/kg). The sample compound dissolved or suspended in an aqueous solution of 0.5% sodium carboxymethylcellulose or 0.05% Tween 80 was orally administered (100 mg/10 ml/kg). 30 minutes later, the abdomen of each was incised and the pylorus was ligated. 30 minutes after the ligation, 30 mg/kg of histamine dissolved in physiological saline was subcutaneously administered and, 3 hours thereafter, the rat was sacrificed with carbon dioxide. Immediately thereafter, each stomach was removed and the gastric contents were collected and each volume was determined. The total acid output was determined by titration of the gastric juice with 0.1N NaOH.
(§2) With respect to the gastric juice volume (VOL) and the total acid output (TAO), the effects obtained when 100 mg/kg of the sample compound had been administered were expressed as their respective inhibitory rates (%) as follows: [formula] CAP: Acid Secretion Inhibition Test In Vitro i) Meaning

[3] = test system: isolated gastric fundic gland; assay: CAP: Acid Secretion Inhibition Test In Vitro ([14C]-aminopyrine uptake); assay type: cell-based, rabbit (male Japanese White); settings: Oryctolagus cuniculus, 40 min, read-out: CAP: acid secretion inhibitory rate
Protocol: as §2
The acid secretion inhibitory activity in a cell level is studied. It can also be used for studying the mechanism of the effect.
ii-a) Preparation of isolated gastric fundus gland suspension
First, an isolated gastric fundic gland sample was prepared. […] Immediately thereafter, the stomach was removed and, after its pyloric and cardiac antrum were severed, incised along its greater curvature into two sheets. The gastric contents adhering to the mucosal surface was washed out with ice-cooled PBS (-) and then carefully washed therein. The gastric wall was spread on a cork board with its mucosal surface facing up and the feed and mucus thereon were completely removed with sterile gauze. The mucosa was separated therefrom by a spatula and then collected in ice-cooled PBS (-). After being washed twice with PBS (-), the mucosa was minced into 2-3 mm^3 pieces by scissors. These pieces were further washed twice with a nutrient solution. The nutrient solution comprises 132.4 mM of NaCl, 5.4 mM of KCl, 5 mM of Na2 HPO4.12H2 O, 1 mM of NaH2 PO4.2H2 O, 1.2 mM of MgSO4, 1 mM of CaCl2, 25 mM of HEPES, 2 mg/ml of glucose, and 1 mg/ml of BSA. Into 70 ml of the nutrient solution containing 1 mg/ml of collagenase, minced mucosal pieces were dispersed and intensely stirred in a conical flask with a stirrer at 37° C. for 40 to 60 minutes. During this period, 100% O2 was sprayed on the nutrient solution surface and the pH was appropriately measured such that it was immediately adjusted to pH 7.4, when the value was therebelow, with a base. The nutrient solution was added to the reaction solution so as to attain the total amount of about 200 ml. After being filtered through a mesh, the suspension was divisionally introduced into 50 ml centrifuge tubes and left for 15 minutes such that gastric fundic gland was deposited. The supernatant was repeatedly removed by an aspirator, dispersed in the nutrient solution, and then left such that the gastric fundic gland was washed three times. At this time, without using a pipette, the suspension was alternately introduced into two centrifuge tubes so as to effect dispersion. The number of cells was counted under microscope and adjusted to 1.6×10^6 cells/ml.
ii-b) [^14 C]-aminopyrine uptake test
Then, [^14 C]-aminopyrine uptake test was performed. After an Eppendorf tube was weighed, 10 μl (final concentration: 10^-5 M) of histamine dissolved in the above-mentioned nutrient solution, 10 μl (final concentration: 10^-5 M) of the test compound dissolved in DMSO, and 10 μl (final concentration: 0.05 μCi/ml) of [^14 C]-aminopyrine diluted with the nutrient solution were introduced therein and then 970 μl of the isolated gastric fundic gland suspension prepared above was added thereto. Subsequently, this mixture was shaken at 37° C. for 40 minutes at 125 cycles/minute. After being centrifuged for 30 minutes, 200 μl of its supernatant was collected into a mini-vial, while the rest was removed by an aspirator. The gland pellet was completely dried as the tube with its lid being opened was kept for one night in a drying oven at 80° C. and then the lid was closed and the weight was determined at room temperature. Then 100 μl of 1N KOH was added thereto and the tube with its lid being closed was treated at 60° C. for 1 to 2 hours so as to dissolve the pellet. Then, the contents thereof were transferred to a mini-vial. Into the mini-vial containing the supernatant or gland pellet, 4 ml of Atomlite™ was added and then the radioactivity was measured by a liquid scintillation counter. […]

[4] = test system: Male Slc:ICR mice; parameters: species or system mouse (male Slc:ICR); settings: mouse, in vivo
Protocol: AT: Single Dose Toxicity Pretest
Male Slc:ICR mice (5-week-old) were used. Each group has 3 to 5 mice and each mouse was fasted, but allowed free access to water, for 4 to 5 hours from 9 a.m. in the test day. Then, 2,000 mg/10 ml/kg of the sample compound dissolved or suspended in an aqueous solution of 0.5% sodium carboxymethyl cellulose was orally administered thereto. To a control, only the vehicle was administered. […] The body weight was measured before and after the fasting as well as at the same time everyday. The dead animals were immediately subjected to autopsy and their organs were observed microscopically. Also, the living animals were sacrificed with ether or carbon dioxide one week after the administration and then their organs were observed microscopically.
The toxicity at the single dose of 2,000 mg/kg of the sample compound was expressed as being classified into 5 levels.
5: Mortality rate is 0%; no toxicity is found at all both in behavior and organs.
4: Mortality rate is 0%; while no toxicity is found in organs, slight toxicity is observed in behavior and body weight increase.
3: While there is a dead animal (though not all the animals are dead), no toxicity is found in organs.
2: Regardless of whether there is a dead animal or not, toxicity is found in organs.
1: All the animals are dead.

[5] = test system: gastric mucosa; assay: PD: Gastric Mucosal Integrity Test (gastric mucosal potential difference); assay type: in vivo, rat (male Crj:SD); parameters: key: 5: Same as the control with no recognizable damage at all.; 4: Though a slight PD-decreasing tendency suggesting a slight possibility of mucosal damage is found, there is no problem.; 3: Though a weak decrease in PD and a possibility of a weak mucosal damage is recognized, there is no substantial problem.; 2: Medium degree of decrease in PD is found and a mucosal damage is recognized.; 1: Heavy degree of decrease in PD is found and a remarkable mucosal damage is recognized; settings: 100 mg/kg into chamber, rats, 60 minutes
Protocol: PD: Gastric Mucosal Integrity Test
In this case, since the sample compound has a necrotizing effect, it is inappropriate as an anti-ulcer medicament.
Therefore, the gastric mucosal potential difference (PD), which reflects the integrity of the gastric mucosa, is measured so as to confirm that the sample compound has no damaging effect on gastric mucosa, which is toxicity at gastric mucosal level.
Male Crj:SD rats (7 to 8-week-old) were fasted overnight, but allowed free access to water, and then, under urethane anesthesia (1.25 g/kg, i.p.), fixed to a cork board on its back. The abdomen of each rat was incised, and a small incision was made in the forestomach. Then, the inside of the stomach was washed with physiological saline heated at 37° C. From the forestomach, along the greater curvature thereof, the stomach was incised without damaging blood vessels. After the height of the cork board was adjusted on a jack, the stomach was mounted on ex vivo chamber. The area of the gastric mucosa exposed to the inside of this chamber was 2.5 cm^2. The inside of the chamber was perfused with physiological saline warmed at 37° C. by micro tube pump. By using an agar bridge containing 3M KCl, the potential difference between the chamber and the abdominal cavity was measured by a PD meter. Here, the rectal temperature was measured to control the body temperature during the experiment. After the PD was sufficiently stabilized, the perfusate was stopped and then 100 mg/10 ml/kg of the sample compound dissolved or suspended in an aqueous solution of 0.5% sodium carboxymethyl cellulose or 0.05% Tween 80 was administered into the chamber, while PD was recorded for 60 minutes. To a control, the vehicle was administered.
The change in PD during 60 minutes after the administration of 100 mg/kg of the sample compound was collectively studied and, with reference to the positive control, classified into 5 levels as follows:
5: Same as the control with no recognizable damage at all.
3: Though a weak decrease in PD and a possibility of a weak mucosal damage is recognized, there is no substantial problem.
2: Medium degree of decrease in PD is found and a mucosal damage is recognized.
1: Heavy degree of decrease in PD is found and a remarkable mucosal damage is recognized.

[6] = test system: gastric corpus mucosa cells; settings: rabbit, gastric mucosal cells, 4 h, 100 µM
[7] = in vitro; settings: rabbit, gastric mucosal cells
[8] = MTT: Cell Damaging and Protecting Effect Test; settings: rabbit, gastric mucosal cells
[9] = test system: Helicobacter pyroli; assay: AHP: Antibacterial Activity Test Against Helicobacter pyroli (agar dilution MIC); assay type: cell-based, Helicobacter pyroli NCTC 11637; settings: for MIC: Helicobacter, NCTC11637, 168 h, HP NCTC 11637, brucella agar with 5% horse blood, 7 days, read-out: AHP: minimum inhibitory concentration (MIC)
Protocol: Antibacterial Activity Test Against Helicobacter pyroli i) Meaning The minimum inhibitory concentration (MIC) against Helicobacter pyroli (microaerophilic gram-negative bacterium which is supposed to deeply involve in pathogenesis, relapse, and recrudescence of ulcer, referred to as "HP" in the following) is measured so as to find out compounds which have antimicrobial activity against Helicobacter pyroli. ii) Method MICs were determined by the agar dilution method. The stock culture (-80° C.) of HP NCTC 11637 was thawed and cultured on tripticase soy agar supplemented with 5% sheep blood at 37° C. in an atmosphere of 5% O2, 10% CO2, and 85% N2. Grown colonies were transferred to the same plate and precultured for 3 days under the same condition. […] 10 μl of the bacterial suspension for inoculation (about 10^3 cfu) was inoculated on this plate and cultured for 7 days under the same condition as that of preculture.

[10] = 10^-5 M compound, 10^-5 M histamine, rabbit isolated gastric fundic gland, 37° C., 40 minutes

CC(C)=CCC/C(C)=C/COc1ccc(C(=O)NCCN2CCCCC2)cc1 [Example 3]
WIS: ulcer formation inhibitory rate [1]: 79%
TAO: total acid output inhibitory rate [2]: 85%
VOL: gastric juice volume inhibitory rate [2]: 68%
inhibition at 10 µM [3, 10]: 100%
AT: toxicity at single dose, 5 levels [4]: 4

CC(C)=CCC/C(C)=C/CC/C(C)=C/COc1ccc(C(=O)NCCN2CCCCC2)cc1 [Example 10]
WIS: ulcer formation inhibitory rate [1]: 47%
inhibition at 10 µM [3, 10]: 98%
PD: change in gastric mucosal potential difference, 5 levels [5]: 5
AT: toxicity at single dose, 5 levels [4]: 4

CC(C)=CCCC(C)=CCOc1ccc(C(=O)NCCN2CC(C)OC(C)C2)cc1 (stereo not drawn) [Example 34]
WIS: ulcer formation inhibitory rate [1]: 38%
MTT: cell damaging rate [6]: 14%

CC(C)=CCC/C(C)=C/COc1ccc(C(=O)NCCN2CCN(CC(C)C)CC2)cc1 [Example 46]
WIS: ulcer formation inhibitory rate [1]: 78%
TAO: total acid output inhibitory rate [2]: 34%
VOL: gastric juice volume inhibitory rate [2]: 33%
inhibition at 10 µM [3, 10]: 100%
cytotoxicity at 4 h, 100 µM [7]: 68%

CC(C)=CCC/C(C)=C/COc1ccc(C(=O)NCCN2CCN(CC(=O)N3CCCC3)CC2)cc1 [Example 55]
inhibition at 10 µM [3]: 99.2%
cytotoxicity at 4 h, 100 µM [8]: 27%

CC(C)=CCC/C(C)=C/COc1ccc(C(=O)NCCN2CCN(c3nc4ccccc4s3)CC2)cc1 [Example 59]
WIS: ulcer formation inhibitory rate [1]: 47%
inhibition at 10 µM [3, 10]: 93%
MIC [9]: < 3.13 µg/mL
antibacterial activity against Helicobacter pyroli ([9]; result in words): having an antibacterial activity against Helicobacter pyroli
cytotoxicity at 4 h, 100 µM [7]: 7%

CC(C)Cc1cc(C(=O)NCCN2CCN(CC(C)C)CC2)ccc1OCc1ccc(F)cc1 [Example 62]
WIS: ulcer formation inhibitory rate [1]: 77%
inhibition at 10 µM [3, 10]: 102%
MIC [9]: < 3.13 µg/mL
AT: toxicity at single dose, 5 levels [4]: 3
